Test: gradient 5% acetonitrile 3 min, to 50% in 2 min, to 85% in 15 min, held 3 min, 100 µL/min
Details: column: Zorbax Extend-C18 2.1 x 50 mm; eluents: water / acetonitrile, 0.1% formic acid
How it was run: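 The system's dead and dwell volumes were 40 μL and 900 μL, with a Zorbax Extend-C18 column (2.1 × 50 mm, 1.8 μm) run at 100 μL/min in water and acetonitrile containing 0.1% formic acid each. Pure standards were analyzed in mixtures of ~100 molecules by HPLC–quadrupole time-of-flight mass spectrometry in positive and negative ionization mode. Retention time was assigned from computationally picked, manually inspected adduct peaks.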

| RP-LC retention time [s] | SMILES |
| --- | --- |
| 850 | Cn1cccc1Cc1nnc(SCC(=O)Nc2ccccc2F)n1CCc1ccccc1 |
| 729 | Cc1ccc(/C=C/S(=O)(=O)N2CC(c3nc(-c4ncccn4)no3)C2)cc1 |
| 784 | CN1C(=O)CCc2cc(NC(=O)Cc3c(F)cccc3Cl)ccc21 |
| 686 | CCCS(=O)(=O)NCc1ccc2c(c1)CCN2C(=O)CC |
| 1090 | CCOc1cccc(-c2noc(Cn3c(=O)n(-c4ccc(C)cc4)c(=O)c4sccc43)n2)c1 |
| 611 | N#CCCN1CCN(C2=NC(=O)/C(=C\c3cccs3)S2)CC1 |
| 838 | Cc1nc(-c2noc(-c3ccccc3)n2)cn1CC(=O)NCc1ccc(F)cc1F |
| 956 | Cc1ccc(Cl)cc1NC(=O)Cn1cccc1-c1nnc(C2CC2)o1 |
| 1000 | O=C(CCn1nnc2cc(-c3noc(COc4ccccc4)n3)ccc21)N1CCCCCC1 |
| 756 | Cc1ccc(CNC(=O)C2CC(=O)N(c3ccc4c(c3)CCN4C(=O)C3CC3)C2)cc1 (stereo not drawn) |
| 1190 | Cc1ccc(NC(=O)Cn2nc(N3CCCCCC3)c3ccccc3c2=O)c(F)c1 |
| 1120 | CCc1ccc(NC(=O)Cn2c(C)nc3c(sc4nc(-c5ccccc5)ccc43)c2=O)cc1 |
| 1080 | CCOc1ccc(-c2nc(-c3cccc(-c4ccn[nH]4)c3)no2)cc1OCC |
| 633 | CC(C)N1C(=O)C2(CCCCC2)C1C(=O)N1CCOCC1 (stereo not drawn) |
| 843 | COCCN1C(=O)c2ccccc2C(C(=O)NC2CCCC2)C1c1cccs1 (stereo not drawn) |
| 748 | CCCCCC(CN1CCOCC1)C(=O)/C=C/c1ccccc1 (stereo not drawn) |
| 826 | Cc1ccc(NC(=O)Cn2nc3nc(N4CCCC(C)C4)ccn3c2=O)cc1C (stereo not drawn) |
| 818 | C=CCn1ccc2c(OCC(=O)Nc3ccc4c(c3)OCCO4)cccc2c1=O |
| 693 | CCc1ccc(S(=O)(=O)N2CCN(c3ccc4nncn4n3)CC2)s1 |
| 754 | Cc1cc(C)n(-c2nc3cc(Cl)ccc3nc2N2CCN(c3ccccn3)CC2)n1 |
| 897 | CCCN(CCC)S(=O)(=O)c1cc(-c2nnc(C)o2)co1 |
| 1030 | O=c1n(Cc2cccc(Br)c2)nc2c(S(=O)(=O)N3CCc4ccccc4C3)cccn12 |

| RP-LC retention time [s] | SMILES |
| --- | --- |
| 758 | CCOC(=O)C(CC)SC1=NS(=O)(=O)c2cc(F)ccc2N1 (stereo not drawn) |
| 580 | CCN1CCN(CCCNC(=O)C2CCN(c3nc4cccnc4n(CC)c3=O)CC2)CC1 |
| 898 | CCCn1c(C)c(C)c(S(=O)(=O)c2ccc(OC)cc2)c1NC(=O)C1CCCO1 (stereo not drawn) |
| 681 | O=C(Cc1ccc(NC(=O)c2ccc(F)cc2Cl)cc1)NC1CC1 |
| 1160 | Cc1ccc(C)c(CNC(=O)c2nnc(-c3ccc(S(=O)(=O)N4CCC(C)CC4)cc3)o2)c1 |
| 704 | CO[C@H]1C(=O)N(C2CCN(S(=O)(=O)c3ccc4c(c3)CCC4)CC2)[C@H]1c1ccncc1 |
| 978 | CCOc1ccccc1NS(=O)(=O)c1ccc(-c2c(C)noc2C)cc1 |
| 842 | Cn1nc(-c2nc(C3CC3)no2)c2c1CCN(C(=O)c1cc(F)ccc1Cl)C2 |
| 1060 | CCc1nc(-c2csc(S(=O)(=O)N3CCCC(C(=O)Nc4ccccc4CC)C3)c2)no1 (stereo not drawn) |
| 907 | Cc1ccc(CN2N=C(C(=O)N3CCOCC3)S(=O)(=O)c3ccc(C)cc32)cc1 |
| 722 | CCN1CCN(CCCNC(=O)Cn2c(-c3cccs3)cc3ccccc32)CC1 |
| 848 | COc1ccc(-c2nnc(Cc3nc(-c4ccccc4F)no3)o2)cc1OC |
| 566 | Cc1ccccc1OCC(O)CN1CCN(Cc2ccc3c(c2)OCO3)CC1 (stereo not drawn) |
| 1070 | Cc1cc(C)c(-c2csc(NC(=O)c3ccccc3[N+](=O)[O-])n2)c(C)c1 |
| 1040 | CCCOc1cccc2c1CCN(Cc1ccc(F)cc1)C2=O |
| 995 | COc1ccc(-c2nnc(Cc3nc(-c4cccc(Cl)c4)no3)o2)cc1OC |
| 721 | CC1(C)CC(=O)C2=C(C1)Nc1ccccc1N(CC(=O)N1CCOCC1)C2c1cccs1 (stereo not drawn) |
| 817 | CCOC(=O)c1ccc(Nc2ncnc3c2cnn3C)cc1 |
| 762 | Cc1oc2ccn(Cc3ccc(F)cc3)c(=O)c2c1C(=O)NCCN(C)C1CCCCC1 |
| 536 | COC[C@@H]1CN(Cc2cccc(OC)n2)C[C@H]1c1ccncc1 |
| 615 | Cc1ccc(=O)n(CCNC(=O)C2CC(=O)N(c3ccc(C)c(C)c3)C2)n1 (stereo not drawn) |
| 781 | CC(=O)c1cccc(S(=O)(=O)NCC2CCN(C(=O)c3cc4ccccc4o3)CC2)c1 |

| RP-LC retention time [s] | SMILES |
| --- | --- |
| 680 | Clc1ccc(-c2nnc(-c3nc(NCc4cccnc4)c4ccccc4n3)o2)cc1 |
| 630 | O=C(NC1CC1)C1CC(=O)N(c2ccc3c(c2)CCN3C(=O)C2CC2)C1 (stereo not drawn) |
| 917 | Cc1ccc(S(=O)(=O)NCCc2nc(-c3cccc(-c4ccnn4C)c3)no2)cc1 |
| 593 | CCCN1CCN(C(=O)C2CCCN(c3nc4cccnc4s3)C2)CC1 (stereo not drawn) |
| 1170 | COC(=O)c1ccsc1NC(=O)c1cc(-c2ccccc2)on1 |
| 596 | CN(C)CCNC(=O)CN1C(=O)C2CCCCN2c2ccc(C(=O)N3CCCC3)cc21 (stereo not drawn) |
| 685 | O=C(Nc1ccc(C(F)(F)F)cc1)NC1CCN(c2cc(N3CCOCC3)cnn2)C1 (stereo not drawn) |
| 679 | Cc1ccc(S(=O)(=O)N2CCN(c3cnn4c(C)nnc4c3)CC2)cc1 |
| 946 | CCCn1cc(CCNS(=O)(=O)Cc2cc(C)ccc2C)c2cccnc21 |
| 695 | Cc1cccc(CNC(=O)C2CCN(S(=O)(=O)c3c(C)[nH]c(C)c3C(=O)N3CCCC3)CC2)c1 |
| 839 | O=C(C1CCN(c2ncccc2-c2nc(-c3ccccc3)no2)CC1)N1CCOCC1 |
| 924 | CCOc1ccc(N2C=C(C(=O)OC)S(=O)(=O)c3cc(F)ccc32)cc1 |
| 936 | N#Cc1ccc(C(=O)OCc2nc3ccccc3s2)cc1 |
| 887 | COc1ccc(Cc2nc3nccc(-c4cccc(OC)c4)n3n2)cc1 |
| 706 | Cc1cc(C(=O)N2C[C@@H](CO)[C@H](c3nc(C4CC4)no3)C2)c(C)o1 |
| 719 | Cc1ccc(NC(=O)N2CCCC(Cn3cnc4cccnc43)C2)cc1C (stereo not drawn) |
| 720 | CC(C)c1ccc(S(=O)(=O)N2CCC3(CC2)c2nccn2CCN3C)cc1 |
| 579 | CN(C)c1ccc(CNC(=O)c2cc3c(=O)n(C)ccc3n2C)cc1 |
| 575 | O=C(CCOc1ccc(F)cc1)N1CCN(Cc2ccccc2)CC1 |
| 780 | COc1ccc(N2CCN(C3=NS(=O)(=O)c4ccccc43)CC2)cc1 |
| 649 | CCCc1cc(N2CCN(C(=O)c3ccc(N(C)C)cc3)CC2)nc2nnc(CC)n12 |
| 733 | COc1ccc(C(=O)N2C[C@@H]3C[C@H](NC(=O)c4cccs4)[C@H]2C3)cc1F |

| RP-LC retention time [s] | SMILES |
| --- | --- |
| 611 | O=C(Nc1ccc(C(=O)N2CCN(c3ccccn3)CC2)cc1)C1=CSCCO1 |
| 751 | O=S(=O)(Nc1cccn2c(C3CCC3)nnc12)c1ccc2c(c1)OCCO2 |
| 860 | Cc1nc(C)c(C(=O)N2CCC(Oc3ccc(-c4noc(C5CC5)n4)cc3)C2)s1 (stereo not drawn) |
| 823 | O=C(Cn1c2ccccc2c2ncn(Cc3nc(C4CC4)no3)c(=O)c21)Nc1ccc2c(c1)OCO2 |
| 1080 | CCOC(=O)N1CCN(c2nc(-c3cccc([N+](=O)[O-])c3)cs2)CC1 |
| 1370 | Clc1cccc(-c2nnc(-c3nc(NCCC4=CCCCC4)c4ccccc4n3)o2)c1 |
| 1310 | Cc1ccc(C)c(-c2coc(-c3ccc(NC(=O)COc4ccc(F)cc4)cc3)n2)c1 |
| 602 | CN1CCCC1c1nc(C2CN(S(=O)(=O)c3ccc(C#N)cc3)C2)no1 (stereo not drawn) |
| 682 | CCn1ccc2oc(C)c(C(=O)N3CCN(c4ccc(OC)cc4)CC3)c2c1=O |
| 805 | Cc1ccc(C(=O)NCCn2c(=O)n(Cc3ccccc3)c3cccnc32)s1 |
| 666 | CC(=O)Nc1ccc(S(=O)(=O)N2CCC(C(=O)N3CCN(c4ncccn4)CC3)CC2)cc1 |
| 897 | Cc1ccc(NC(=O)N2CCCC2c2cc(C)on2)c(Cl)c1 (stereo not drawn) |
| 942 | CCn1c(=O)c(C)nc2cc(-c3noc(-c4ccc(OC)cc4)n3)ccc21 |
| 585 | CCN1CCN(c2ccc(-c3ccc(OC)c(S(=O)(=O)N4CCOCC4)c3)nn2)CC1 |
| 657 | COc1ccc(CNC(=O)C2CCCN(c3nnc4ccc(Cl)cn34)C2)cc1 (stereo not drawn) |
| 991 | COC(=O)c1ccc(NC(=O)C2(C)Oc3cccnc3N(C(C)C)C2=O)cc1 (stereo not drawn) |
| 599 | CC(C)N1CCN(S(=O)(=O)c2cc(-c3nnc(C4CC4)o3)co2)CC1 |
| 836 | COC(=O)c1cc2c(=O)n(Cc3ccc(OC)cc3)ccc2nc1C |
| 935 | O=C(c1ccc([N+](=O)[O-])cc1)N(Cc1ccccc1)Cc1ccco1 |

| SMILES | RP-LC retention time [s] |
| --- | --- |
| CCCN(CCC)C1COc2cccc(OC)c2C1 (stereo not drawn) | 722 |
| COc1ccc2c(c1)C1(CCN(C(=O)c3ccccc3Cl)C1)C(=O)N2 (stereo not drawn) | 708 |
| O=C1C2CCCN2C(c2ccncc2)N1c1cccc(Cl)c1 (stereo not drawn) | 587 |

Reference: the METLIN SMRT retention time set (Domingo-Almenara et al. 2019)
